Laboratory results: patent publication US20190315711A1 (eXIthera Pharmaceuticals, Inc., priority 2016, published 2019)

Target: human Factor XIa (Homo sapiens, UniProt P03951)
Assay: Factor XIa enzyme inhibition assay (dose response, fluorogenic AMC substrate)
Assay type: biochemical
Design: Enzyme: Factor XIa
Conditions: purified enzyme; substrate 50 μM, enzyme 0.25 nM; read-out: hFXIa IC50
Method: • Assay buffer: 20 mM Hepes, pH 7.4; 150 mM NaCl; 0.02% Tween 20 • Compounds: 10 mM stocks in DMSO • Substrate: 20 mM Glp-Pro-Arg-AMC, 25 mg/2.3 mL H2O (store at +4° C.) [Factor XIa, thrombin, and trypsin] • 20 mM Pro-Phe-Arg-AMC (Bachem I-1295), 25 mg/2.2 mL H2O or Boc-Leu-Gly-Arg-AMC (Bachem I-1105), 25 mg/2.07 mL H2O (store at +4° C.) [Factor Xa] • Enzyme: Factor XIa; 0.25 M in 50% glycerol (20 μg/mL) • Trypsin; 0.2 μM in 50% glycerol (4.8 μg/mL) • Thrombin; 0.2 μM in 50% glycerol (7.34 μg/mL) • Factor Xa; 0.2 μM in 50% glycerol (9.2 μg/mL)
• 1. Dilute the substrate to 100 μM in assay buffer (30 μL/6 mL). The enzyme is diluted to 0.5 nM just prior to use (12 L/6 mL for Factor XIa; 15 μL/6 mL for all of the rest.) • 2. Pipette 50 μL of substrate into each well of the 96 well (12×8) microtiter plate. (Column 1 is used as the 100% activity control and receives no compound, and Column 12 is the blank and receives no enzyme.) Add an additional 46 μL to column 2. • 3. Pipette 4 μL of each compound into the appropriate well in column 2 of the plate (unknowns assayed in triplicate, standard assayed in duplicate). The final compound concentration will be 1/50th of the stock. • 4. Serially two-fold dilute the compound by mixing the sample in column 2, removing 50 μL to the next well (column 3), mix and remove to column 4, etc. until column 11. After mixing column 11, remove 50 μL and discard. • 5. Pipette 50 μL of buffer into column 12. Initiate the reaction by adding 50 μL of enzyme solution to each well of columns 1-11 as rapidly as possible. • 6. Read the plate in a spectrophotometer (SpectraMax) at 30° C., wherein each well is measured every 60 s for 30 min. For Factor Xa assays, each well is measured every 1 min for a total of 60 min. • 7. For Factor XIa assays, the compounds are assayed, in duplicate, at 3 different starting concentrations, 20, 2, and 0.2 μM; 1:10, 1:100, and 1:1000 dilution of 10 mM stock or at 2, 0.2, and 0.02 μM; 1:100, 1:1000, and 1:10,000 dilution of 10 mM stock. Data for each concentration are combined for graphing and data fitting. • 8. Data can be used both for estimation of IC50 and for estimation of Kon.
Potential inhibitors of Factor XIa were evaluated using the following assay.
PyroGlu-Pro-Arg-7-methylaminocourin (AMC), available from CPC Scientific, Inc., is based on the substrate pyro-Glu-Pro-Arg-pNA (S-2366), available from Diapharma Group, Inc. (Columbus, Ohio), wherein the p-nitroanaline group is replaced with 7-methylaminocoumarin (AMC).
The final concentration of the substrate in the assay was 50 μM, and the final concentration of the enzyme was 0.25 nM. Inhibitors were tested by serial dilution over an appropriate range to yield a dose response curve for determination of the inhibitors' IC50 value. The assay mixture was read every minute for 30 minutes in order to generate progress curves. The plates were read in a Spectramax m5 Multimode Plate Reader (Molecular Devices LLC, Sunnyvale, Calif.). Dose response curves were fit to Equation 1 below in which A is the maximum inhibition, B is the minimum inhibition, C is the IC50, and D is the Hill coefficient.
Y=[(A−B)/(1+(X/C)^D)]+B (Equation 1)

Chain of human Factor XIa (P03951 388-625 limits assumed): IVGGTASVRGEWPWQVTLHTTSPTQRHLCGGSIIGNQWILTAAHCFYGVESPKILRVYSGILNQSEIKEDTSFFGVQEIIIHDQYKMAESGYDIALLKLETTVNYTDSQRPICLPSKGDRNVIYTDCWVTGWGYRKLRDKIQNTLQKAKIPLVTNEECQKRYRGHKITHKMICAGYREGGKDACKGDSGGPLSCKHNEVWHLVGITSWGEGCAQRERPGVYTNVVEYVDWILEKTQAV
Chain of human Factor XIa (P03951 19-387 partner limits assumed): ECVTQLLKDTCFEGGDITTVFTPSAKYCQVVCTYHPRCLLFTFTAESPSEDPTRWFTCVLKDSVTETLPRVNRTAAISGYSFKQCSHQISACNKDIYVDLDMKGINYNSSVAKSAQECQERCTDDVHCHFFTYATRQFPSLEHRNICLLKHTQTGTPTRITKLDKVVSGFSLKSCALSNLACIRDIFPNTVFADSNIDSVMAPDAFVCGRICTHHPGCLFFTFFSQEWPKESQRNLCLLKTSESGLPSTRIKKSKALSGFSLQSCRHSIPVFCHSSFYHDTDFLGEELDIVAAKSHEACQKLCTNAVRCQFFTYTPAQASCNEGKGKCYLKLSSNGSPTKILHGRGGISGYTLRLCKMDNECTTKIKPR

| SMILES | IC50 [µM] |
| --- | --- |
| Nc1cc(C[C@H]2C(=O)N(C(=O)N[C@@H](C3CCCCC3)C(F)(F)F)[C@@H]2C(=O)N2CCCc3ccccc32)ccn1 [Compound 76] | 0.01 to 0.1 |
| CC[C@@H](NC(=O)N1C(=O)[C@H](Cc2cc(N)ncc2F)[C@H]1C(=O)N(C)c1ccccc1)C1CCCCC1 [Compound 85] | > 1 |
| CC[C@@H](NC(=O)N1C(=O)[C@H](Cc2cc(N)ncc2C)[C@H]1C(=O)N(C)c1ccccc1)C1CCCCC1 [Compound 88] | > 1 |
| CC[C@@H](NC(=O)N1C(=O)[C@H](Cc2cc(N)ncc2C)[C@H]1C(=O)N(C)c1ccncc1)C1CCCCC1 [Compound 92] | 0.01 to 0.1 |
| CC[C@@H](NC(=O)N1C(=O)[C@H](Cc2ccnc(N)c2)[C@H]1C(=O)N(C)c1ccncc1)c1ccc(F)c(F)c1 [Compound 93] | 0.01 to 0.1 |
| CC[C@@H](NC(=O)N1C(=O)[C@H](Cc2ccnc(N)c2)[C@H]1C(=O)N(C)c1ccncc1)c1ccc(OC(F)(F)F)cc1 [Compound 94] | 0.01 to 0.1 |
| CC[C@@H](NC(=O)N1C(=O)[C@H](Cc2ccnc(N)c2)[C@H]1C(=O)N(C)c1ccncc1)c1cncnc1 [Compound 102] | 0.01 to 0.1 |
| CC[C@@H](NC(=O)N1C(=O)[C@H](Cc2ccnc(N)c2)[C@H]1C(=O)N(C)c1ccncc1)c1cccc(C(F)(F)F)c1 [Compound 105] | 0.01 to 0.1 |
| CC[C@@H](NC(=O)N1C(=O)[C@H](Cc2ccnc(N)c2)[C@H]1C(=O)N(C)c1ccncc1)c1cccc(OC(F)(F)F)c1 [Compound 106] | 0.01 to 0.1 |
| CC[C@@H](NC(=O)N1C(=O)[C@H](Cc2ccnc(NC(C)=O)c2)[C@H]1C(=O)N(C)c1ccncc1)c1cccc(Cl)c1 [Compound 107] | 0.01 to 0.1 |
| CC[C@@H](NC(=O)N1C(=O)[C@H](Cc2ccnc(N)c2)[C@H]1C(=O)N(C)c1cc(C)nc(C)c1)c1cccc(Cl)c1 [Compound 123] | 0.01 to 0.1 |
| CC[C@@H](NC(=O)N1C(=O)[C@H](Cc2ccnc(N)c2)[C@H]1C(=O)N(C)c1cc(C)nc(C)c1)c1cccc(C)c1 [Compound 129] | 0.01 to 0.1 |
| CC[C@@H](NC(=O)N1C(=O)[C@H](Cc2ccnc(N)c2)[C@H]1C(=O)N(C)c1ccncc1)c1cccc(F)c1F [Compound 130] | 0.01 to 0.1 |
| CC[C@@H](NC(=O)N1C(=O)[C@H](Cc2cc(N)ncc2F)[C@H]1C(=O)N(C)c1ccncc1)c1cccc(Cl)c1 [Compound 131] | 0.1 to 1 |
| CC[C@@H](NC(=O)N1C(=O)[C@H](Cc2cc(C)nc(N)c2)[C@H]1C(=O)N(C)c1ccccc1)c1ccc(C)nc1 [Compound 132] | 0.01 to 0.1 |
| CC[C@@H](NC(=O)N1C(=O)[C@H](Cc2cc(C)nc(N)c2)[C@H]1C(=O)N(C)c1ccncc1)c1ccc(C)nc1 [Compound 133] | 0.01 to 0.1 |
| CN(C(=O)[C@@H]1[C@@H](Cc2ccnc(N)c2)C(=O)N1C(=O)NCc1cccc(Cl)c1)c1ccccc1 [Compound 137] | 0.01 to 0.1 |
| CC[C@@H](NC(=O)N1C(=O)[C@H](Cc2ccnc(N(C)C)c2)[C@H]1C(=O)N(C)c1ccncc1)c1ccccc1Cl [Compound 139] | 0.1 to 1 |
| CC[C@@H](NC(=O)N1C(=O)[C@H](Cc2ccnc(N(C)C)c2)[C@H]1C(=O)N(C)c1ccncc1)c1cccc(Cl)c1 [Compound 140] | 0.1 to 1 |
| Nc1cc(C[C@H]2C(=O)N(C(=O)N[C@@H](C3CCCCC3)C(F)(F)F)[C@@H]2C(=O)Nc2ccc(Cl)cc2)ccn1 [Example 9] | 0.1 to 1 |
| COc1cccc(N(C)C(=O)[C@@H]2[C@@H](Cc3ccnc(N)c3)C(=O)N2C(=O)N[C@@H](C2CCCCC2)C(F)(F)F)c1 [Example 12] | 0.01 to 0.1 |

Results, then the molecule that gave them:

| IC50 [µM] | SMILES |
| --- | --- |
| 0.01 to 0.1 | CCC[C@H](NC(=O)N1C(=O)[C@H](Cc2ccnc(N)c2)[C@H]1C(=O)N(C)c1ccccc1)c1cccnc1 [Compound 69] |
| 0.01 to 0.1 | CN(C(=O)[C@@H]1[C@@H](Cc2ccnc(N)c2)C(=O)N1C(=O)NC(C(F)(F)F)C(F)(F)F)c1ccccc1 [Compound 71] |
| 0.01 to 0.1 | CN(C(=O)[C@@H]1[C@@H](Cc2ccnc(N)c2)C(=O)N1C(N)=O)c1ccncc1 [Compound 72] |
| < 0.01 | CCC[C@@H](NC(=O)N1C(=O)[C@H](Cc2ccnc(N)c2)[C@H]1C(=O)N(C)c1ccncc1)c1cccnc1 [Compound 73] |
| < 0.01 | CCC[C@@H](NC(=O)N1C(=O)[C@H](Cc2ccnc(N)c2)[C@H]1C(=O)N(C)c1ncccn1)c1cccnc1 [Compound 74] |
| < 0.01 | CN(C(=O)[C@@H]1[C@@H](Cc2ccnc(N)c2)C(=O)N1C(=O)N[C@@H](c1cccnc1)C1CC1)c1ncccn1 [Compound 75] |
| < 0.01 | Cc1cccc(C(NC(=O)N2C(=O)[C@H](Cc3ccnc(N)c3)[C@H]2C(=O)N(C)c2ccncc2)c2cccc(C)c2)c1 [Compound 101] |
| < 0.01 | CC[C@@H](NC(=O)N1C(=O)[C@H](Cc2ccnc(N)c2)[C@H]1C(=O)N(C)c1ccncc1)c1cccc(F)c1 [Compound 103] |
| < 0.01 | CC[C@@H](NC(=O)N1C(=O)[C@H](Cc2ccnc(N)c2)[C@H]1C(=O)N(C)c1ccncc1)c1ccccc1F [Compound 108] |
| < 0.01 | CC[C@@H](NC(=O)N1C(=O)[C@H](Cc2ccnc(NC)c2)[C@H]1C(=O)N(C)c1ccncc1)c1cccc(Cl)c1 [Compound 109] |
| < 0.01 | CC[C@@H](NC(=O)N1C(=O)[C@H](Cc2ccnc(N)c2)[C@H]1C(=O)N(C)c1ccncc1)c1cc(F)ccc1F [Compound 110] |
| < 0.01 | CC[C@@H](NC(=O)N1C(=O)[C@H](Cc2cc(C)nc(N)c2)[C@H]1C(=O)N(C)c1ccncc1)c1cccc(Cl)c1 [Compound 111] |
| < 0.01 | CC[C@@H](NC(=O)N1C(=O)[C@H](Cc2cc(C)nc(N)c2)[C@H]1C(=O)N(C)c1ccncc1)C1CCCCC1 [Compound 114] |
| < 0.01 | CC[C@@H](NC(=O)N1C(=O)[C@H](Cc2cc(C)nc(N)c2)[C@H]1C(=O)N(C)c1ccncc1)c1ccccc1 [Compound 122] |
| < 0.01 | CC[C@@H](NC(=O)N1C(=O)[C@H](Cc2ccnc(N)c2)[C@H]1C(=O)N(C)c1ccncc1)c1cccc(Cl)c1Cl [Compound 125] |
| < 0.01 | CCc1cccc([C@@H](CC)NC(=O)N2C(=O)[C@H](Cc3ccnc(N)c3)[C@H]2C(=O)N(C)c2ccncc2)c1 [Compound 126] |
| < 0.01 | CC[C@@H](NC(=O)N1C(=O)[C@H](Cc2ccnc(N)c2)[C@H]1C(=O)N(C)c1ccnc(C)c1)c1cccc(C)c1 [Compound 128] |
| < 0.01 | CC[C@@H](NC(=O)N1C(=O)[C@H](Cc2ccnc(N)c2)[C@H]1C(=O)N(C)c1ccccc1)c1ccc(C)nc1 [Compound 134] |
| < 0.01 | CC[C@@H](NC(=O)N1C(=O)[C@H](Cc2ccnc(N)c2)[C@H]1C(=O)N(C)c1cccc(F)c1)c1ccc(C)nc1 [Compound 136] |
| < 0.01 | CN(C(=O)[C@@H]1[C@@H](Cc2ccnc(N)c2)C(=O)N1C(=O)NCc1cccc(Cl)c1)c1ccncc1 [Compound 138] |
